{
  "source": "patent US20210205253A1",
  "about": "“Use Of Stearic Acid For Preventing Or Treating Pulmonary Fibrosis” (THE ASAN FOUNDATION, priority 2018, published 2021)",
  "key": {"[1]": {"test_system": "pulmonary fibrosis induced by bleomycin", "test": "Stearic acid in bleomycin-induced pulmonary fibrosis animal model", "format": "in vivo, mice (C57BL6J)", "source_text": "Based on the results of Example 2-2, the present inventors attempted to verify the anti-fibrotic effect of stearic acid in an animal model in which pulmonary fibrosis was induced by bleomycin. For this purpose, 6-week-old mice (C57BL6J) were classified into the following 4 groups of 4 or 5 mice, respectively: groups treated with (1) intratracheal saline+vehicle, (2) intratracheal saline+stearic acid, (3) intratracheal 4 units/kg bleomycin+vehicle, and (4) intratracheal bleomycin+stearic acid. Subsequently, mice were anesthetized with 50 mg/kg […] and 5 mg/kg Rompun, followed by infusion of bleomycin and saline into the trachea. The mice were treated with 3 mg/kg stearic acid using oral gavage (zonde) three times a week for 3 weeks. Thereafter, on day 21, lung tissues and blood were collected from the mice and used for the study."}, "[2]": {"test_system": "primary fibroblasts isolated from lung tissues of patients with idiopathic pulmonary fibrosis", "test": "Collagen 1 and α-SMA expression in primary fibroblasts from IPF patients", "format": "cell-based, human", "conditions": "80 μM stearic acid", "procedure": "In addition to the results in the Examples, the present inventors sought to verify the anti-fibrotic effect of stearic acid on fibroblasts derived from lung tissues in patients with idiopathic pulmonary fibrosis (IPF). For this purpose, after primary fibroblasts were isolated from lung tissues of the patients, and then the cells were treated with stearic acid at various concentrations for 24 hours, the expression levels of collagen 1 and α-SMA were measured (FIGS. 10A and 10B), fibroblasts obtained from 4 patients were treated with 80 μM stearic acid for 24 hours, and then the expression levels of collagen 1 and α-SMA were measured (FIG. 10C). In addition, after the expression of collagen type 1 and α-SMA was increased by inducing the fibrosis caused by TGF-β1 in patient-derived fibroblasts, the anti-fibrotic effect of stearic acid was verified (FIGS. 10D and 10E)."}, "[3]": {"test_system": "Beas-2B human pulmonary epithelial cell line", "test": "E-cadherin expression in epithelial cells", "format": "cell-based", "conditions": "40 μM stearic acid, 24 h", "procedure": "The present inventors examined the expression level of E-cadherin after treating Beas-2B, which is a human pulmonary epithelial cell line, with TGF-β1 and/or 40 μM stearic acid for 24 hours in order to examine the effects of stearic acid on epithelial cells. As a result, as illustrated in FIGS. 11A and 11B, it was confirmed that when Beas-2B was treated with 40 μM stearic acid, the expression of E-cadherin reduced by TGF-β1 was restored in Beas-2B cells. […] It was confirmed in FIG. 3B that when epithelial cells are treated with TGF-β1, the proliferation of epithelial cells was inhibited and the proliferation of epithelial cells was restored by stearic acid."}, "[4]": {"test_system": "p-Smad2/3 and Smad7 in MRC-5 cells", "test": "p-Smad2/3 and Smad7 expression in fibroblasts", "format": "cell-based, human", "conditions": "40 μM stearic acid pre-treatment 16 h, TGF-β1 1 h", "procedure": "(§1) The present inventors pre-treated a human pulmonary fibroblast cell line MRC-5 with 40 μM stearic acid for 16 hours, treated the MRC-5 cells with TGF-β1 for 1 hour, and then examined the expression levels of p-Smad2/3 and Smad7 in order to elucidate the anti-fibrotic mechanism of stearic acid in human pulmonary fibroblasts (FIGS. 12A and 12B). Further, to investigate the effect of stearic acid on the production of reactive oxygen species (ROS), MRC-5 cells were pre-treated with 40 μM stearic acid for 16 hours, and cells treated with TGF-β1 for 1 hour were stained with DCF-DA and analyzed by FACS (FIG. 12C). Furthermore, MRC-5 cells were pre-treated with 5 mM N-acetylcysteine (NAC), which is an antioxidant, for 1 hour and treated with TGF-β1 for 1 hour, and then the expression of p-Smad2/3 was examined (FIG. 12D)."}, "[5]": {"test_system": "reactive oxygen species in MRC-5 cells", "test": "ROS measurement (DCF-DA, FACS)", "format": "cell-based, human", "conditions": "40 μM stearic acid pre-treatment 16 h, TGF-β1 1 h", "procedure": "as §1"}, "[6]": {"test_system": "human primary fibroblasts", "test": "Combined treatment of stearic acid and pirfenidone in human primary fibroblasts (western blotting)", "format": "cell-based", "conditions": "TGF-β 5 ng/ml; 40 μM stearic acid single treatment (Lane 4)", "procedure": "(§2) The primary fibroblasts derived from the patients with idiopathic pulmonary fibrosis used in the following experiment were cultured for 7 to 10 days while cutting the lung tissue of the patient into 1×1 mm^2 slices, and then periodically exchanging a cell culture solution (Eagle's minimal essential medium; EMEM) supplemented with 100 unit/ml penicillin, 100 μg/ml streptomycin, and 10% fetal bovine serum (FBS) under conditions of 5% CO2 and 37° C., and cells of passage 2 to 5 were used for the experiment.\nTo verify the anti-fibrotic effect by the combined treatment of stearic acid and pirfenidone, which is a therapeutic agent for idiopathic pulmonary fibrosis, the human primary fibroblasts isolated by the above-described method were respectively or simultaneously treated with 5 ng/ml TGF-β, 40 μM stearic acid, and 400 or 800 μM pirfenidone for 24 hours, and then the expression levels of collagen type 1 (COL-1) and α-SMA, which are markers of fibrosis, were measured by western blotting, and the inhibitory rate was quantitatively analyzed by correcting the amount of each protein with the amount of actin, which is an intracellular control protein."}, "[7]": {"test_system": "human primary fibroblasts", "test": "Combined treatment of stearic acid and nintedanib in human primary fibroblasts", "format": "cell-based", "conditions": "40 μM stearic acid single treatment versus TGF single treatment", "procedure": "as §2, with “experiment. To verify the anti-fibrotic effect by the combined treatment of stearic acid and nintedanib, which is another therapeutic agent for idiopathic pulmonary fibrosis, human primary fibroblasts were respectively or simultaneously treated with 5 ng/ml TGF-β, 40 μM stearic acid, and 1.5 or 2 μM nintedanib for 24 hours, and then the expression levels of collagen type 1 (COL-1) and α-SMA, which are markers of fibrosis, were measured, respectively.” for “experiment.”"}, "[8]": {"conditions": "day 21, stearic acid 3 mg/kg oral"}, "[9]": {"conditions": "primary fibroblasts from 4 patients with IPF, 24 h (FIG. 10C)"}},
  "data": [
    {"smiles": "CCCCCCCCCCCCCCCCCC(=O)O", "note": "[stearic acid]", "values": [
      {"measurement": "reduction in body weight due to bleomycin", "setting": "[1]; day 7, stearic acid 3 mg/kg oral gavage three times a week", "result": "significantly inhibited"},
      {"measurement": "expression of p-Smad2/3 in lung tissues", "setting": "[1]; [8]", "result": "inhibition of an increase in expression of p-Smad2/3"},
      {"measurement": "expression of α-SMA in lung tissues", "setting": "[1]; [8]", "result": "inhibiting an increase in expression of α-SMA"},
      {"measurement": "histopathological characteristics of pulmonary fibrosis (H&E)", "setting": "[1]; day 21, stearic acid 3 mg/kg oral, 3 weeks", "result": "remarkably reduced"},
      {"measurement": "accumulation of hydroxyproline", "setting": "[1]; lung tissue, day 21, stearic acid 3 mg/kg oral", "result": "inhibiting the accumulation of hydroxyproline"},
      {"measurement": "blood level of TGF-β1", "setting": "[1]; serum, day 21, stearic acid 3 mg/kg oral", "result": "inhibiting an increase in the blood level of TGF-β1"},
      {"measurement": "basal level expression of collagen 1", "setting": "[2]; 24 h (FIGS. 10A, 10B)", "result": "significantly reduced"},
      {"measurement": "basal level expression of α-SMA", "setting": "[2]; 24 h (FIGS. 10A, 10B)", "result": "significantly reduced"},
      {"measurement": "expression of collagen 1", "setting": "[2]; fibrosis induced by TGF-β1", "result": "significantly reduced"},
      {"measurement": "expression of α-SMA", "setting": "[2]; fibrosis induced by TGF-β1", "result": "significantly reduced"},
      {"measurement": "basal level expression of collagen 1", "setting": "[2]; [9]", "result": "significantly reduced"},
      {"measurement": "basal level expression of α-SMA", "setting": "[2]; [9]", "result": "significantly reduced"},
      {"measurement": "expression of E-cadherin reduced by TGF-β1", "setting": "[3]", "result": "restored"},
      {"measurement": "expression of Smad 7 reduced by TGF-β1", "setting": "[4]", "result": "restored"},
      {"measurement": "expression of p-Smad2/3 induced by TGF-β1", "setting": "[4]", "result": "inhibited"},
      {"measurement": "level of reactive oxygen species induced by TGF-β1", "setting": "[5]", "result": "remarkably reduced"},
      {"measurement": "change in COL-1", "setting": "[6]", "result": "insignificant"},
      {"measurement": "α-SMA", "setting": "[6]", "result": "reduced"},
      {"measurement": "expression level of COL-1", "setting": "[7]", "result": "no change"},
      {"measurement": "expression level of α-SMA", "setting": "[7]", "result": "no change"}
    ]}
  ]
}
